Experiment: gradient 5% acetonitrile 3 min, to 50% in 2 min, to 85% in 15 min, held 3 min, 100 µL/min
Details: column: Zorbax Extend-C18 2.1 x 50 mm; eluents: water / acetonitrile, 0.1% formic acid
Procedure, shortened: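 Over 3 months, pure standards in mixtures of ~100 molecules were run by HPLC coupled to a quadrupole time-of-flight mass spectrometer in positive and negative ionization mode. The column was a Zorbax Extend-C18 (2.1 × 50 mm, 1.8 μm) at 100 μL/min, eluted with water and acetonitrile each holding 0.1% formic acid, with 40 μL dead and 900 μL dwell volumes. Retention time was determined from adduct peaks chosen by software and checked manually.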
With `CC(=O)N1CCCSc2ccc(S(=O)(=O)N3CCN(c4cc(C)ccc4C)CC3)cc21` the RP-LC retention time was 1130 s.
`O=C1NC2(CCN(C(=O)c3cccc(Cl)c3)CC2)N=C1c1cccc(F)c1` gave an RP-LC retention time of 888 s.
With `CCc1ccc(-c2cn3ccn(-c4cccc(F)c4)c(=O)c3n2)cc1` the RP-LC retention time was 895 s.
Work on `CCOc1ccccc1NC(=O)Cc1c(C)nn(-c2nc(-c3ccc(F)cc3)cs2)c1C` yielded an RP-LC retention time of 1290 s.
`COC[C@@H]1CN(c2cnccn2)C[C@H]1C(=O)NCc1ccc(C)o1` gave an RP-LC retention time of 636 s.
For `O=C(Cc1cccc(C(F)(F)F)c1)Nc1cnn(-c2ncc(N3CCCC3)cn2)c1`, the RP-LC retention time was 907 s.
With `Cc1nn(C2CCS(=O)(=O)C2)c(C)c1N1CCN(S(=O)(=O)c2cccnc2)CC1` (configuration not stated) the RP-LC retention time was 679 s.
In the case of `COC(=O)c1cccc(Nc2c(-c3cccc(O)c3)nc3cnccn23)c1`, the RP-LC retention time is reported as 696 s.
`Cc1ccc(Cl)cc1N1CCN(c2cc(C(=O)O)c3cc(NC(=O)CC(C)C)ccc3n2)CC1` showed an RP-LC retention time of 828 s.
Molecule `O=C(NC1CCCCC1)N1CCCCC1c1nncn1CC1CC1` (configuration not stated) has an RP-LC retention time of 704 s.
`CC1CCN(S(=O)(=O)c2cccn(Cc3cc(F)cc(F)c3)c2=O)CC1` showed an RP-LC retention time of 974 s.
`CC(C)N1C(=O)c2cccnc2Sc2cc(NC(=O)c3ccoc3)ccc21` showed an RP-LC retention time of 773 s.
`COc1ccc(-c2nc3cnccn3c2Nc2cc(C)cc(C)c2)cc1OC` gave an RP-LC retention time of 874 s.
In the case of `CCc1nnc2cc(N3CCN(C(=O)Nc4cccc(C)c4)CC3)cnn12`, the RP-LC retention time is reported as 593 s.
Work on `Cc1ccc2c(NCc3ccc(F)cc3)c(-c3nc(C(C)C)no3)cnc2n1` yielded an RP-LC retention time of 798 s.
In the case of `CN1C(=O)[C@]2(CO)SSC1(Cc1cn([C@]34C[C@@]56SS[C@@](CO)(C(=O)N5[C@H]3Nc3ccccc34)N(C)C6=O)c3ccccc13)C(=O)N2C`, the RP-LC retention time is reported as 898 s.
With `CCCNC(=O)N(C1CCOCC1)C1CCN(C(=O)CCc2c[nH]c3ccccc23)CC1` the RP-LC retention time was 730 s.
For `CCN1C(=O)COc2ccc(-c3csc(NC(=O)C4CCCO4)n3)cc21` (configuration not stated), the RP-LC retention time was 838 s.
For `CCn1cnc(S(=O)(=O)N2CCCC(C(=O)Nc3ccc(C)cc3C)C2)c1` (configuration not stated), the RP-LC retention time was 753 s.
`Cc1ccc(Sc2nccnc2N2CCCC(C(=O)N3CCN(c4ccc(C)cc4)CC3)C2)cc1` (configuration not stated) gave an RP-LC retention time of 1290 s.
Work on `Cc1ccc2c(Sc3ccc(Cl)cc3)c(C(=O)N3CCN(c4ccccn4)CC3)[nH]c2c1` yielded an RP-LC retention time of 894 s.
Work on `CN1C(=O)C(CC(=O)NC2CCCC2)Sc2ncccc21` (configuration not stated) yielded an RP-LC retention time of 668 s.
`CCN1C(=O)c2cccnc2Sc2cc(CNC(=O)c3sccc3C)ccc21` showed an RP-LC retention time of 779 s.
`O=C(NCCc1ccccc1)N1CCN(c2cnn3cnnc3c2)CC1` gave an RP-LC retention time of 615 s.
`COc1ccc(N2CCN(C(=O)CC(C)S(=O)(=O)c3ccc4c(c3)CCN4C(C)=O)CC2)cc1` (configuration not stated) showed an RP-LC retention time of 754 s.
`COc1cc(NC(=O)CCc2c(C)nn3cnnc3c2C)cc(OC)c1` gave an RP-LC retention time of 662 s.
`CCOc1ccc(-c2cc3c(=O)n(Cc4nc(-c5ccccc5Cl)no4)ncn3n2)cc1` showed an RP-LC retention time of 1150 s.
For `CC1CN(c2ccc(Cl)cc2)c2nc3c(c(=O)n(CCN4CCOCC4)c(=O)n3C)n2C1` (configuration not stated), the RP-LC retention time was 686 s.
Molecule `Cc1noc(C)c1CNC(=O)C(C)Oc1cccc(Cl)c1` (configuration not stated) has an RP-LC retention time of 832 s.
With `CCCNC(=O)c1nc(Nc2ccc(CC)cc2)c2ccccc2n1` the RP-LC retention time was 813 s.
For `CN(C)CCCNC(=O)Cn1c(=O)n(-c2ccccc2)c2ncccc21`, the RP-LC retention time was 592 s.
`Cc1nn(-c2ccc(N3CCCC3)nn2)c(C)c1CCC(=O)N1CCN(c2ncccn2)CC1` showed an RP-LC retention time of 605 s.
Molecule `CCOc1ccccc1NC(=O)Cn1nc2c3sc(N(C)C)nc3ncn2c1=O` has an RP-LC retention time of 724 s.
`COc1cc(OC)c(NC(=O)N(C)Cc2nc3cc(C(=O)N4CCCC4)ccc3n2C)cc1Cl` gave an RP-LC retention time of 640 s.
`Fc1ccc(-c2nnc(Cc3nc(-c4cccc(C(F)(F)F)c4)no3)o2)cc1` gave an RP-LC retention time of 1110 s.
Work on `O=C(CSCc1ccccc1)N1CCC(Cn2cccn2)CC1` yielded an RP-LC retention time of 721 s.
In the case of `Cc1sc2cc(C(=O)NC(C)C)[nH]c2c1CN1CCCCC1`, the RP-LC retention time is reported as 643 s.
With `COc1cccc(-c2ccc(=O)n(Cc3nc(-c4cccc(OC)c4)no3)n2)c1` the RP-LC retention time was 682 s.
`CCN1CCCc2cc(C(=O)NCc3cccc(OC)c3)sc21` gave an RP-LC retention time of 962 s.
With `CN1C(=O)c2cc(S(=O)(=O)Nc3cc(F)cc(F)c3)ccc2Oc2cccnc21` the RP-LC retention time was 936 s.
`O=C(CN1CCN(c2ccccn2)CC1)Nc1nccs1` showed an RP-LC retention time of 555 s.
Molecule `CCn1c(CCc2ccccc2NS(=O)(=O)c2ccc3c(c2)OCCO3)nc2ccccc21` has an RP-LC retention time of 717 s.
For `CN1C(=O)Cc2cc(C(=O)N3CCCCC3)ccc21`, the RP-LC retention time was 652 s.
In the case of `Cc1ccc2oc(-c3nnc(C(=O)NCCCN4CCCC4)o3)c(C)c2c1`, the RP-LC retention time is reported as 688 s.
Molecule `COCCN1C(=O)c2ccccc2C(C(=O)NCc2ccc(OC)cc2)C12CCCC2` (configuration not stated) has an RP-LC retention time of 785 s.
In the case of `CCN1C(=O)SC(CC(=O)O)C1=O` (configuration not stated), the RP-LC retention time is reported as 948 s.
In the case of `COC(=O)c1cccc(-c2nc(C3CC(=O)N(c4ccc(F)cc4)C3)no2)c1` (configuration not stated), the RP-LC retention time is reported as 884 s.
Molecule `CC1CCN(C(=O)c2ccc3c(c2)N(CC(=O)NC(C)C)C(=O)CO3)CC1` has an RP-LC retention time of 684 s.
For `CC1CCN(C(=O)CN2C(=O)C3CCCCN3c3ccc(C(=O)N(C)C)cc32)CC1` (configuration not stated), the RP-LC retention time was 752 s.
In the case of `Cc1ccc(NC(=O)CSc2nnc(NC(=O)c3cc(C4CC4)on3)s2)cc1Cl`, the RP-LC retention time is reported as 926 s.
`CCCN(Cc1ccc(OC)cc1)Cc1cc(=O)n2ccc(C)cc2n1` showed an RP-LC retention time of 628 s.
Work on `O=C(c1ccc2c(c1)OCO2)N1CCCC2(C1)NC(=O)N(Cc1ccccc1)C2=O` (configuration not stated) yielded an RP-LC retention time of 762 s.
`CN(C)S(=O)(=O)c1ccc2c(c1)N(CC(=O)NCCc1ccco1)C(=O)C1CCCCN21` (configuration not stated) showed an RP-LC retention time of 842 s.
For `CCc1ccc(NC(=O)C2CCN(S(=O)(=O)c3cn(C(C)C)cn3)CC2)cc1`, the RP-LC retention time was 840 s.
Work on `COc1cc2c(cc1OC)C(=O)C(CC1CCN(Cc3ccccc3)CC1)C2` (configuration not stated) yielded an RP-LC retention time of 690 s.
`O=C(COc1ccc(F)cc1)NCC1CCC(c2nc3ccccc3[nH]2)CC1` (configuration not stated) showed an RP-LC retention time of 578 s.
Work on `Cc1ccc(Cn2c(C(=O)NC3CCC(C)CC3)cc3sccc32)cc1` (configuration not stated) yielded an RP-LC retention time of 1340 s.
`O=C(CN1C[C@H]2C[C@H](C1)[C@H]1CCCC(=O)N1C2)NCC1CC1` gave an RP-LC retention time of 563 s.
Work on `Cc1nc(N2CCCC2)cc(N2CCN(C(=O)c3ccc(Br)o3)CC2)n1` yielded an RP-LC retention time of 645 s.
Molecule `CCc1ccc(NC(=O)C2CCCN(S(=O)(=O)c3c[nH]c(C(=O)N4CCCC4)c3)C2)cc1` (configuration not stated) has an RP-LC retention time of 873 s.
Work on `CCOC(=O)Cc1c(C)nc2cc(-c3ccccc3)nn2c1C` yielded an RP-LC retention time of 1020 s.
With `COCCN1C(=O)CCc2cc(NS(=O)(=O)c3cc(OC)ccc3OC)ccc21` the RP-LC retention time was 724 s.
Work on `Cc1cccc(-c2noc(Cn3c(=O)n(-c4cccc(F)c4)c(=O)c4sccc43)n2)c1` yielded an RP-LC retention time of 1030 s.
`CN1CCC(NC(=O)C2CCN(C(=O)c3ncn4c3COC(c3ccc(F)cc3)C4)CC2)CC1` (configuration not stated) gave an RP-LC retention time of 599 s.
`CNc1cccnc1OC1CCN(Cc2ccccn2)C1` (configuration not stated) showed an RP-LC retention time of 577 s.
Work on `CCCCN1C(=O)c2ccccc2C(C(=O)NCCC(=O)OC)C12CCCCC2` (configuration not stated) yielded an RP-LC retention time of 868 s.
Molecule `CCS(=O)(=O)N1CC(=O)N(c2ccccc2C)C(C)(C(=O)NCc2ccccc2)C1` (configuration not stated) has an RP-LC retention time of 802 s.
`COc1ccc(-c2ccc(=O)n(CCCNC(=O)c3ccc(C(F)(F)F)cc3)n2)cc1` gave an RP-LC retention time of 824 s.
Work on `Cc1ccc(C2=NC3(CCN(C(=O)c4ccc(C#N)cc4)CC3)ON2)cc1` yielded an RP-LC retention time of 776 s.
With `CN(CC1CCOCC1)C(=O)Nc1ccccc1Br` the RP-LC retention time was 768 s.
Molecule `CSc1cccc(NC(=O)Cn2cnc3c(-c4ccncc4)nsc3c2=O)c1` has an RP-LC retention time of 668 s.
For `Cc1cccc(N2CCN(S(=O)(=O)c3cc4c(s3)CCN(C(=O)C3CC3)C4)CC2)c1`, the RP-LC retention time was 1040 s.
In the case of `O=S(=O)(C1CC1)N1CCCCC1c1nncn1Cc1ccccc1` (configuration not stated), the RP-LC retention time is reported as 722 s.
`CC(CNC(=O)c1cn(C)nc1S(=O)(=O)N1CCSCC1)c1ccccc1` (configuration not stated) gave an RP-LC retention time of 1120 s.
Work on `O=C(Cc1ccc(Cl)cc1)NCc1nc(-c2ccc3oc(-c4ccccc4)nc3c2)no1` yielded an RP-LC retention time of 1110 s.
Work on `O=c1c(Cl)c(N2CCN(c3ccccn3)CC2)cnn1-c1nc2ccccc2s1` yielded an RP-LC retention time of 639 s.
Work on `CCc1noc(COC2CCCN(C(=O)NCCc3ccccc3)C2)n1` (configuration not stated) yielded an RP-LC retention time of 796 s.
In the case of `O=C(c1cc(-c2ccccc2)n(C2CCS(=O)(=O)C2)n1)N1CCCC1` (configuration not stated), the RP-LC retention time is reported as 682 s.
For `COc1ccc(-c2nc3cnccn3c2Nc2cccc(C(=O)O)c2)cc1`, the RP-LC retention time was 894 s.
`CC1CN([C@H]2C[C@@H](N=[N+]=[N-])[C@@H](CO)O2)C(=O)NC1=O` (some centres not stated) gave an RP-LC retention time of 644 s.
`CCOc1cccc(-c2noc(-c3nnn4c3COC(c3ccc(F)cc3)C4)n2)c1` (configuration not stated) showed an RP-LC retention time of 1190 s.
Molecule `CC1(C(=O)Nc2cccc(F)c2)CCCCC(=O)N1` (configuration not stated) has an RP-LC retention time of 694 s.
Molecule `CCN1CCn2cc(S(=O)(=O)N3CCN(c4cccc(Cl)c4)CC3)cc2C1=O` has an RP-LC retention time of 872 s.
In the case of `O=C(CCc1c(-c2ccc(Cl)cc2)nc2ccccn12)NCc1ccco1`, the RP-LC retention time is reported as 655 s.
In the case of `Cc1oc(-c2[nH]ncc2C(=O)N2CCCC2)cc1S(=O)(=O)NCc1cccc(Cl)c1`, the RP-LC retention time is reported as 796 s.
In the case of `Cc1ccc(S(=O)(=O)N2C[C@@H]3C[C@H]2C[C@@H]3NC(=O)c2ccccc2)cc1Cl`, the RP-LC retention time is reported as 946 s.
`CCN1C(=O)c2ccccc2Oc2ccc(C(=O)NCc3ccco3)cc21` gave an RP-LC retention time of 843 s.
